Paper PMC3210331 (Journal of structural biology, 2011)

Legend:
[1] = ref Anderson et al., 2011; cited from earlier work
Chk2 = conditions: ref Jobson et al., cited from earlier work
Chk1 = molecular target: T1, Chk1 (Homo sapiens, UniProt O14757); experiment: IMAP fluorescence polarization kinase inhibition assay, Chk1; assay type: biochemical; conditions: for IC50: read-out: IC50 Chk1, IMAP assay, 60 minutes at room temperature
T1 sequence (O14757 1-476): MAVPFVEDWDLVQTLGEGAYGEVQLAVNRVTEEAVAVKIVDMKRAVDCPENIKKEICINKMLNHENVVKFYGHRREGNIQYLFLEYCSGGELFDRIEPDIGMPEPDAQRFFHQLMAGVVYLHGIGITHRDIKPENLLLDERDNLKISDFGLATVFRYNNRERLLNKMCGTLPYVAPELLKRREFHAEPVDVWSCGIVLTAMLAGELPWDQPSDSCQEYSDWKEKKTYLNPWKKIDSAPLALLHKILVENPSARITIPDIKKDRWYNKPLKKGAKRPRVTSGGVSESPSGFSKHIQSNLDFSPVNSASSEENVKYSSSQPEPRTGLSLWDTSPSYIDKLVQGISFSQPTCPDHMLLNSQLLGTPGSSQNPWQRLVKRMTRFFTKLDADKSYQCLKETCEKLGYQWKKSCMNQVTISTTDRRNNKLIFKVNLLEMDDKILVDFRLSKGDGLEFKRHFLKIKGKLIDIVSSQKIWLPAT

RSK2 = RSK2 (Homo sapiens, UniProt P51812); experiment: IMAP fluorescence polarization kinase inhibition assay, RSK2; assay type: biochemical; conditions: for IC50: read-out: IC50 RSK2, IMAP assay, 60 minutes at room temperature
recombinant human Chk2 = recombinant human Chk2 (Homo sapiens, UniProt O96017); experiment: IMAP fluorescence polarization kinase inhibition assay, Chk2; assay type: biochemical; conditions: read-out: IC50 Chk2 Mean ±SD (n=3–4), 60 minutes at room temperature
[2] = positive control on each screening plate

Chain of RSK2 (P51812 68-327 limits assumed): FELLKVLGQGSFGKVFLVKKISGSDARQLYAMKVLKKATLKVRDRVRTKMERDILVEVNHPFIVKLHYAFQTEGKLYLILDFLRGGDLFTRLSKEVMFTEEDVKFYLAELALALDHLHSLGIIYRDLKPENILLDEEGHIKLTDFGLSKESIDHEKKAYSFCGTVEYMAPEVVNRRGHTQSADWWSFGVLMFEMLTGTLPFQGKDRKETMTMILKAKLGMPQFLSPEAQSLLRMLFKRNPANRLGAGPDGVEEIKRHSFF
Chain of recombinant human Chk2 (O96017 whole entry): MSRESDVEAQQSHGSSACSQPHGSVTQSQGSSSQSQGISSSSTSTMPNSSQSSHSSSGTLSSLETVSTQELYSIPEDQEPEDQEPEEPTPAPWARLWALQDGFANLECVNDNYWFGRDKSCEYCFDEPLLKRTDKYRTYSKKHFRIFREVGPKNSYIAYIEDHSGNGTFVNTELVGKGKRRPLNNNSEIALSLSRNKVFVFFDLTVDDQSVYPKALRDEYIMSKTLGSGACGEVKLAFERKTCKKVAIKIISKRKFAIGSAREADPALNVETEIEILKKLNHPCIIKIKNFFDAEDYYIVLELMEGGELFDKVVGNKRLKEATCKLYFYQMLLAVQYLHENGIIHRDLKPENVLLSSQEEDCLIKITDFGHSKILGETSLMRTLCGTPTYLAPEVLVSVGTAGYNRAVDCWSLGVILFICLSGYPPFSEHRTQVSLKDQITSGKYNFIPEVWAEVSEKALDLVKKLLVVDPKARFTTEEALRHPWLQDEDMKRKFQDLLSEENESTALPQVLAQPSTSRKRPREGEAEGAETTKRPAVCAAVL

SMILES: COc1cc2nc(-c3cc(F)ccc3O)nc(N[C@@H]3CNC[C@H]3C(C)(C)O)c2cc1OC [CCT241533]
- Potentiation of cytotoxicity of PARP inhibitors [1]: potentiate the cytotoxicity of PARP inhibitors

SMILES: CC(=NNC(=N)N)c1ccc(NC(=O)Nc2ccc(C(C)=NNC(=N)N)cc2)cc1 [NSC 109555, 4,4'-Diacetyldiphenylurea-bis(guanylhydrazone)]
- Activity in cellular assays (Chk2; 2007): inactive

SMILES: OCC=CCO [PV976]
- IC50 (Chk1): > 100 µM
- IC50 (RSK2): > 100 µM
- IC50 (recombinant human Chk2): 69.6 ± 40.2 nM

SMILES: CC(=NNC(=N)N)c1ccc(NC(=O)c2cc3cccc([N+](=O)[O-])c3[nH]2)cc1 [PV1019, 7-nitro-1H-indole-2-carboxylic acid {4-[1-(guanidinohydrazone)-ethyl]-phenyl}-amide]
- Activity in cells against Chk2 (Chk2; 2009): active

SMILES: C/C(=N\NC1=NCCN1)c1ccc(NC(=O)c2cc3cccc([N+](=O)[O-])c3[nH]2)cc1 [PV1115]
- IC50 (Chk1): 66 µM
- IC50 (RSK2): > 100 µM

SMILES: N/C(=N/N=C/c1cccnc1)N[N+](=O)[O-] [PV1531]
- IC50 (Chk1): 86 µM
- IC50 (RSK2): > 100 µM
- IC50 (recombinant human Chk2): 0.03 ± 0.03 nM

SMILES: CN[C@@H]1C[C@H]2O[C@@](C)([C@@H]1OC)n1c3ccccc3c3c4c(c5c6ccccc6n2c5c31)C(=O)NC4 [staurosporine, reference compound]
- Inhibition of Chk1 (positive control) (Chk1; [2]): inhibits
- Inhibition of RSK2 (positive control) (RSK2; [2]): inhibits
